Entries after “also recorded” stand apart in the source; their conditions may differ.
What was measured:
[1] = system: Soluble and membrane HEK293T cell proteomes; test: Gel assay (gel ABPP): protein binding, rhodamine CuAAC, SDS-PAGE fluorescence; parameters: species or system human; conditions: 25 μM, one hour
Description: (§1) FIG. 2. Structure activity relationship studies of some azetidine compounds of the present disclosure and their reactivity. Cell lysates were incubated with the indicate azetidine compounds for 1 hr for gel experiments and 3 hrs for LC-MS/MS experiments. Rhodamine or desthiobiotin tags were appended to the probe for gel and mass spectrometry experiments, respectively, by copper-catalyzed azide-alkyne cycloaddition, i.e., CLICK chemistry.
(§2) Continuing with the benzimidazole azetidine, we appended different alkyne tags via reductive amination or HATU coupling to observe the effects of N-substituents on the ring (Scheme 1 above). Soluble and membrane HEK293T cell proteomes were treated with 25 μM of azetidine compounds for one hour before addition of rhodamine via CLICK chemistry, i.e., copper catalyzed azide-alkyne cycloaddition (CuAAC). After the proteins were resolved via SDS-PAGE, we discovered a robust and unique binding profile from the azetidine probes (FIG. 2 and FIG. 3).

[2] = biological target: recombinant mammalian DGKα (Rattus norvegicus, UniProt P51556); test: LC-MS/MS enrichment of azetidine-bound peptides on recombinant DGKα; type: binding
Description: (§3) Next, isotopically labeled proteins were obtained through routine procedures using labeled amino acids, and the proteins were then reacted with TH071 for 3 hrs before click chemistry with desthiobiotin azide for 2 hours. Proteins were digested by trypsin into peptides before azetidine-bound peptides were enriched via affinity chromatography. Eluted peptides were analyzed by high resolution LC-MS/MS using a top 10 data-dependent acquisition (DDA). An added mass of 631.3858 Da was used to search for azetidine modifications to amino acid residues. Peptides were quantified between samples by measuring the integration of MS1 peaks between heavy and light peptides, and were sequenced by manual verification of MS2 fragmentation spectra. […] Sulfhydration modifications are a form of cysteine oxidation after the reaction with H2S to form a persulfide (S—SH).
Due to the lipophilic nature of azetidines, we also tested TH071 on recombinant mammalian DGKα and enriched for four peptides that were unique to this azetidine compound. Of these sites, two are located adjacent to the active site, one within the catalytic domain, and another in the zinc finger domain. […] DGKs […] the interconversion of diacylglycerol (DAG) to phosphatidic acid (PA). […]

DGK [3] = test: Gel labeling of second DGK isoform by probe; type: binding; conditions: gel assay
Description: as §2
(§4) T-cells require endogenous H2S to activate and proliferate. Cystathionine β-synthase (CBS) and Cystathionine γ-lyase (CSE) are two proteins responsible for generating H2S, and previous studies have shown how knockdown of these proteins can drastically impair T-cell function. We initially tested if DGKα was affected by sulfur donors in a recombinant system. Thus, HEK293T cells expressing recombinant rat DGKα were treated with Na2S4 for 1 hr for luminescent ADP detection assay (ADP-Glo) and ABPP experiments. The activity of the rat isoform in our ADP-Glo™ assay (Promega Corporation) decreased by 40% at 10 μM 30% at 1 μM of the sulfur donor.

HEK lysates = test: LC-MS/MS identification of azetidine-tagged proteins/peptides (desthiobiotin azide enrichment); type: binding, human
Description: as §1
Our initial attempts to enrich for azetidine-bound peptides were not optimal when we treated HEK lysates with only 25 μM of azetidine compound, illustrated by TH071. While we could easily observe protein bands by gel fluorescence, we were not saturating the proteome.
as §3

recombinant rat DGKα [4] = biological target: T1, recombinant rat DGKα (Rattus norvegicus, UniProt P51556); test: ADP-Glo luminescent ADP detection assay; type: cell-based; conditions: 1 hr, HEK293T cells expressing recombinant rat DGKα
T1 construct: expressed in transfected cells; host or cells: HEK293T
Description: as §4

DGK [5] = test: Substrate assay (ADP-Glo) on second DGK isoform; type: cell-based; conditions: tested in a similar manner as DGKα
recombinant rat DGKα [6] = biological target: T1, recombinant rat DGKα; test: Competitive ABPP gel assay using TH071; type: binding; conditions: Na2S4 1 hr, TH071 as probe
Description: as §2, §4

[7] = Evaluation of ring-opening under biological conditions with cysteine (LC-MS/MS); type: physicochemical; conditions: cysteine 1.5 mmol eq., 37° C., 24 hrs, PBS and DMF (5:1)
Description: (§5) An exemplary azetidine compound (RLM207) was dissolved in deuterated PBS with either cysteine (1.5 mmol eq.) or glutathione (1.5 mmol eq.), and incubated at 37° C. for 24 hrs in phosphate-buffered saline and DMF (5:1). To observe if any products formed between the RLM207 and biological nucleophiles, high-resolution LC-MS/MS was used to analyze the two reactions. Samples were desalted on a STAGE-Tip C^18 column and dissolved in mobile phase A (0.1% formic acid) for LC-MS/MS analysis. […] Thus, at 24.46 min, there appeared a peak with an M+1 mass of 547.2336 m/z corresponding to the covalent product.
(§6) Ring-opening reactions of azetidines typically employ harsh conditions that are not amenable to biological samples, such as strong acids and organic solvents^12-15. Our discovery was the first indication that azetidines form covalent products with a tripeptide.

[8] = Evaluation of ring-opening under biological conditions with glutathione (LC-MS/MS); type: physicochemical; conditions: glutathione 1.5 mmol eq., 37° C., 24 hrs, PBS and DMF (5:1), MS2
Description: as §5, §6

T1 sequence (P51556 whole entry): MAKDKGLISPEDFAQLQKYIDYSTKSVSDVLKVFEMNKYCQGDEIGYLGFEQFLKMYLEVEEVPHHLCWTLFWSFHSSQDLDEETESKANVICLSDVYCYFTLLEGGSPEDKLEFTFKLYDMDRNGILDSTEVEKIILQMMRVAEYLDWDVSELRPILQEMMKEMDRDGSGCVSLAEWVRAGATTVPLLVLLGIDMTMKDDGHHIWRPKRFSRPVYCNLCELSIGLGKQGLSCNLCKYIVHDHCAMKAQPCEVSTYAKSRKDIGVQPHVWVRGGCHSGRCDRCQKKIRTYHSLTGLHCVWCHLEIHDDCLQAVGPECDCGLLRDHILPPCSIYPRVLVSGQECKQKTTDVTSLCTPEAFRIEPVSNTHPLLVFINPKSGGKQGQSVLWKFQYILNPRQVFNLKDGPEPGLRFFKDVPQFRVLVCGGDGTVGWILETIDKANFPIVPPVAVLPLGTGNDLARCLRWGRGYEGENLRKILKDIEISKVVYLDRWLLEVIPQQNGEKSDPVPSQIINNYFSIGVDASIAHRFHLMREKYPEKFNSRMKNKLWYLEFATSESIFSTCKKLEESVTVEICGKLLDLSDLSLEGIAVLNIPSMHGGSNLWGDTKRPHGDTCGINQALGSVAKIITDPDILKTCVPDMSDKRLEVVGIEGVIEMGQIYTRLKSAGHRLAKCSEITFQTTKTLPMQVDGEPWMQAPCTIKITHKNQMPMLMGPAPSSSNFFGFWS
Sequence of recombinant mammalian DGKα (P51556 whole entry, the tested form may be a part): as the sequence (P51556 whole entry) above

SMILES: C#CCCCN1CC(c2ccccc2F)C1 [TH071]
- azetidine reactivity / protein binding (probe labeling) in gel assay [1]: most reactive; also recorded: could not recover probe labeling; also recorded: displayed the best reactivity
- number of enriched peptides unique to the azetidine compound [2]: four
- probe labeling of DGK protein (DGK [3]): failed to label the protein
- enrichment of azetidine-bound peptides (HEK lysates; 25 μM, HEK lysates): not optimal
- identification of azetidine-tagged proteins by LC-MS/MS (HEK lysates; 0.5 mM TH071, 3 hrs, HEK lysates): identified multiple azetidine-tagged proteins
- residue type modified by the azetidine compound (HEK lysates; MS2 site localisation, FIG. 5): binds to cysteine residues

SMILES: [Na+].[Na+].[S-]SS[S-] [Na2S4]
- decrease of DGKα activity (recombinant rat DGKα [4]; 1 μM sulfur donor): 30%
- decrease of DGKα activity (recombinant rat DGKα [4]; 10 μM sulfur donor): 40%
- effect on DGK activity in substrate assay (DGK [5]): showed no effect
- effect of sulfur donor on TH071 labeling of DGKα (competitive ABPP) (recombinant rat DGKα [6]): these results were recapitulated

SMILES: C#CCCCN1CC(c2nc3ccccc3[nH]2)C1 [RLM207]
- product formation between azetidine and cysteine [7]: no change was observed
- product formation between azetidine and glutathione (ring-opening) [8]: had bound to the cysteine of glutathione

SMILES: C#CCCCN1CCC1c1cccc(F)c1 (stereo not shown) [TH073]
- azetidine reactivity / protein binding (probe labeling) in gel assay [1]: could not recover probe labeling

SMILES: C#CCCCN1CCC1c1ccccc1F (stereo not shown) [TH074]
- azetidine reactivity / protein binding (probe labeling) in gel assay [1]: could not recover probe labeling

SMILES: C#CCCCN1CC(c2ccc(F)cc2)C1 [TH069]
- azetidine reactivity / protein binding (probe labeling) in gel assay [1]: most reactive

SMILES: C#CCCCN1CC(c2cccc(F)c2)C1 [TH070]
- azetidine reactivity / protein binding (probe labeling) in gel assay [1]: least reactive
